This is an account of results in US10450326B2, “Thiazolopyrimidinone compounds and preparation methods and use thereof” (PEKING UNIVERSITY, priority 2015, dated 2019).

Data set [1] deals with T1, α7 nAChR (Homo sapiens, UniProt P36544).
T1 construct: expressed in transfected cells; host or cells: Xenopus oocytes (cRNA injection)
The data set can be described thus: α7 nAChR positive allosteric modulator activity assay, voltage clamp in Xenopus oocytes with 100 μM ACh. The data set is classed as cell-based. As to conditions: for activity at 10 µM: at 10 μM compound, current induced by 100 μM ACh, Xenopus oocytes expressing α7 nAChR, read-out: Max Mod (%, at 10 μM). As for the experimental part:
The experimental process was as follows:
(1) Xenopus oocytes were injected with cRNA encoding α7 nAChR in order to express α7 nAChR on the cell membrane successfully;
(2) 100 μM ACh alone was added, and the α7 nAChR characteristic current caused by it was recorded as a control;
(5) The oocytes were incubated for 1 min with 10 μM compound, then 10 µM compound and 100 μM ACh were added simultaneously and the current induced by ACh was recorded at this time;
(6) The differences between the two currents in terms of peak intensity and duration were compared, with the ratio of peak intensity of the two currents representing the adjustment effect (Enhance Rate), in order to determine whether the compound had PAM activity, if the activity was good, then the subsequent test was carried out;
(7) Concentration gradient was set and the effects of compounds at different concentrations on the α7 nAChR characteristic current induced by 100 μM ACh were evaluated. Several determinations were carried out at the same concentration, and the results were presented in the form of “mean±standard deviation”;
(8) The EC50 (median maximum effect concentration) values and Max mod (the current amplitude caused by the maximal degree of adjustable endogenous agonist acetylcholine) values of the compounds and other activity data were obtained by Hill equation Inormalized=Emax/(1+(EC50/C)nH).
The amplitude of the peak current is only normalized by the amplitude produced by 100 μM ACh and different concentrations of LD486. […] It can be seen from FIG. 3 that the Hill equation is used to fit the dose-response curve and calculate the kinetic parameters.

Data set [2] has as its target T2, α7 nAChR (Rattus norvegicus, UniProt Q05941).
T2 construct: from tissue; host or cells: rat brain (hippocampus) cell membranes
The data set can be described thus: Radioisotope ligand binding assay, displacement of [3H]-Methyllycaconitine bound to rat brain cell membrane. (In general: Loss of bound radioactivity is the signal in a displacement assay; it reports binding, not function.)

Data set [3] has as its target T3, α4β2 receptors (Homo sapiens, UniProt P17787+P43681).
T3 construct: expressed in transfected cells; host or cells: Xenopus oocytes
The data set can be described thus: Two-electrode voltage clamp in Xenopus oocytes, α4β2 receptor. As to conditions: 10 μM LD486, pre-stimulated 60 seconds, 10 μM ACh. The data set is classed as cell-based. As for the experimental part:
(§1) FIGS. 4A and B show the response intensity curves of Xenopus oocytes stimulated by only […] Ach to α4β2 and α3β4 in the left panel, respectively.
(§2) FIGS. 4A and B show the response intensity curves of Xenopus oocytes stimulated by 10 μM ACh and […] LD486 to α4β2 and α3β4 in the right panel, respectively. Xenopus oocytes are pre-stimulated with 10 μM LD486 for 60 seconds.
(§3) Used as exogenous expression system, Xenopus oocytes are injected with different α subunits and β subunits at 1:1 ratio.

Data set [4] deals with T4, hERG (human ether-a-go-go related gene) channel (Homo sapiens, UniProt Q12809).
T4 construct: expressed in transfected cells; host or cells: CHO (Chinese hamster ovary) cell lines
T4 sequence (Q12809 whole entry): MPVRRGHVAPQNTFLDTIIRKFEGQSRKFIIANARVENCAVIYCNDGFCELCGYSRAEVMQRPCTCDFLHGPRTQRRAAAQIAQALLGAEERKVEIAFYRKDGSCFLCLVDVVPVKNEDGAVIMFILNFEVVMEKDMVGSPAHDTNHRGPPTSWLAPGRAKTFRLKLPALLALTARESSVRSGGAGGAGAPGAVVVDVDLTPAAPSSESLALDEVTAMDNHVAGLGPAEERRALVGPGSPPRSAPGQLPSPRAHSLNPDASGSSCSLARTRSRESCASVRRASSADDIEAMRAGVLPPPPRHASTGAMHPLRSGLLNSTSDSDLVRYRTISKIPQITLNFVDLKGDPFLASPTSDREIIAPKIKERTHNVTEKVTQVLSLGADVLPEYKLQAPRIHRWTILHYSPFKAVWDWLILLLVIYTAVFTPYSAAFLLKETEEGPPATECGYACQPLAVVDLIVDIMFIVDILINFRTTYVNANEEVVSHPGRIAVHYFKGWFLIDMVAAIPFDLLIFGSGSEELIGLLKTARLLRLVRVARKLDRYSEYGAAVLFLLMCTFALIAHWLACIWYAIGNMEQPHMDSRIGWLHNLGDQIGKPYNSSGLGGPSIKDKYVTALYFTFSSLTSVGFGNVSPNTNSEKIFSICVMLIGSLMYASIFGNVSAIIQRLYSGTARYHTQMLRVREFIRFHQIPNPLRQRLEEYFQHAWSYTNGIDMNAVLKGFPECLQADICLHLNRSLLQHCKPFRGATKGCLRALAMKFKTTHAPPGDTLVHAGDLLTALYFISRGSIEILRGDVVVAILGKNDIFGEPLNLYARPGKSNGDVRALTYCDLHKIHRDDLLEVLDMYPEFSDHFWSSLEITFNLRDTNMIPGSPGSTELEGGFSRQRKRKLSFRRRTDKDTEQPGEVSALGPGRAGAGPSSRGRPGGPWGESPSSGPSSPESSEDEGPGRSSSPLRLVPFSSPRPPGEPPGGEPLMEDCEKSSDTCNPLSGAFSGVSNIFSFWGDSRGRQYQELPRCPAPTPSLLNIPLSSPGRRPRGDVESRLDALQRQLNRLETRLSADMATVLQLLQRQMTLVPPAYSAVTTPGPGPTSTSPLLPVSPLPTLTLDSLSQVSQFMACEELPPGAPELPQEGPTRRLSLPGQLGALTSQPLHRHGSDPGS
Nature of the data set: Automatic patch clamp Qplate-16 assay, hERG channel expressed on CHO cell lines. The note with it: CHO cells. The data set is classed as cell-based. From the text: In the absence of LD486 or cisapride or in the presence of LD486 or cisapride at different concentrations, drug-related hERG potassium channel inhibition can lead to ventricular delayed repolarization (long QT interval syndrome), which may lead to a current intensity of fatal arrhythmia such as torsades de pointes, and even sudden death.

Data set [5] has as its target T5, α3β4 receptors (Homo sapiens, UniProt P30926+P32297).
T5 construct: expressed in transfected cells; host or cells: Xenopus oocytes
The data set can be described thus: Two-electrode voltage clamp in Xenopus oocytes, α3β4 receptor. The data set is classed as cell-based. The note with it: 10 μM LD486, pre-stimulated 60 seconds, 10 μM ACh. As for the experimental part:
as §1, §2, §3
Background: Two-electrode voltage clamp holds a large cell at a set potential and records current.

The mark [6] stands for this setting: potentiation of current induced by 100 μM ACh, Hill equation fit.

Each structure is given as a SMILES string. “Also recorded” adds a separate entry of the source.

T1 sequence (P36544 23-502): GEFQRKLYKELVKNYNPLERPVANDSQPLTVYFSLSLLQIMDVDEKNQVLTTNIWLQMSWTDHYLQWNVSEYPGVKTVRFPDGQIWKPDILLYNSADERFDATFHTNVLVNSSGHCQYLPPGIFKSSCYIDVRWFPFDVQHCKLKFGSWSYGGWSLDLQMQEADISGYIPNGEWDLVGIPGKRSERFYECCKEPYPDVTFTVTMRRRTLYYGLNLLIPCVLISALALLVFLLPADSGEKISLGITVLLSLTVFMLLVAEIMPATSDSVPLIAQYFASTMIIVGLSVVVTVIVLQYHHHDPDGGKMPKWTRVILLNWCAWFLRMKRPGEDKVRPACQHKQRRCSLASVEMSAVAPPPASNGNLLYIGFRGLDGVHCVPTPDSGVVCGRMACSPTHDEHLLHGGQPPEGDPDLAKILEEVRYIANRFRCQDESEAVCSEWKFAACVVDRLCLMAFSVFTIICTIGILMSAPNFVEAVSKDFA
T3 sequence (P43681 29-627 limits assumed): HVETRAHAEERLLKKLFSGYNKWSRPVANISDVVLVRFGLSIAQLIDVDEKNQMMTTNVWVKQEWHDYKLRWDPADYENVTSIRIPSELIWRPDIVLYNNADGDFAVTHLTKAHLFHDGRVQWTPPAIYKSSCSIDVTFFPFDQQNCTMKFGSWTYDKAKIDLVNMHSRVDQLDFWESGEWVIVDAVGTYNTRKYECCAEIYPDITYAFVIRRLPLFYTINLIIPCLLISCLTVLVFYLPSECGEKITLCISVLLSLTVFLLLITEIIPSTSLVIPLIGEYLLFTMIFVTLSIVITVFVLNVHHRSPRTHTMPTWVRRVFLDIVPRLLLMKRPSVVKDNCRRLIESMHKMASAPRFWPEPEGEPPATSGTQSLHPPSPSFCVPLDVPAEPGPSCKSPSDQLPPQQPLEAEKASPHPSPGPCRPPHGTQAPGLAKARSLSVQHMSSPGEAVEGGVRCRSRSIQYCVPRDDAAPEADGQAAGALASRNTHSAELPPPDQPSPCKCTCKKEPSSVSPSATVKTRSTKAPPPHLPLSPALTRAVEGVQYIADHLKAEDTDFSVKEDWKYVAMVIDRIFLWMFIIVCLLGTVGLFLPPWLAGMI
T3 sequence (P17787 26-502): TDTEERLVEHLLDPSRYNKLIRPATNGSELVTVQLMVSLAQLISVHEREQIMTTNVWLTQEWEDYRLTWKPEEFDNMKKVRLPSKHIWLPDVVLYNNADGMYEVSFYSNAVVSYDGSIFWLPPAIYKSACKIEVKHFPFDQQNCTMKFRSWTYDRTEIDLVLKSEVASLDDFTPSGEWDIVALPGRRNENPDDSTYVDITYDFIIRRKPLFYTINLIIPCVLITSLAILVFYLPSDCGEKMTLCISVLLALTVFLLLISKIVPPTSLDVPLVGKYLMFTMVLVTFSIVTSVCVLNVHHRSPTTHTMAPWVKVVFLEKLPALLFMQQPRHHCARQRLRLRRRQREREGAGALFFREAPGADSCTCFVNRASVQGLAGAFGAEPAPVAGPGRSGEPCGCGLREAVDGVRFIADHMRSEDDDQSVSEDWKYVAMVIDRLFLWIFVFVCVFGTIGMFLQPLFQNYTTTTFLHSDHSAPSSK
T2 sequence (Q05941 23-502): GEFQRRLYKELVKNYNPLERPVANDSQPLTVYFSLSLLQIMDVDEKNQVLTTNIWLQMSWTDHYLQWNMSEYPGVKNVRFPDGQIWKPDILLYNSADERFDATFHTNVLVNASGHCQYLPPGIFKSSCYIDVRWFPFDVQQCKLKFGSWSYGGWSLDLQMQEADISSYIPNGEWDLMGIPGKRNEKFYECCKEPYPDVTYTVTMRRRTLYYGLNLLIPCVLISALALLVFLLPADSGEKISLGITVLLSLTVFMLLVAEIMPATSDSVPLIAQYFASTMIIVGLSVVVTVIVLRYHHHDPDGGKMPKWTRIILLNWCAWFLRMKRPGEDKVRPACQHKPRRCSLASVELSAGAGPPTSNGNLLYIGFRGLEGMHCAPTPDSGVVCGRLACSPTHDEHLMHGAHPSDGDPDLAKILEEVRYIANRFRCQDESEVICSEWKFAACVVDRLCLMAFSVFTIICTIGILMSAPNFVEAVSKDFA
T5 sequence (P32297 32-505): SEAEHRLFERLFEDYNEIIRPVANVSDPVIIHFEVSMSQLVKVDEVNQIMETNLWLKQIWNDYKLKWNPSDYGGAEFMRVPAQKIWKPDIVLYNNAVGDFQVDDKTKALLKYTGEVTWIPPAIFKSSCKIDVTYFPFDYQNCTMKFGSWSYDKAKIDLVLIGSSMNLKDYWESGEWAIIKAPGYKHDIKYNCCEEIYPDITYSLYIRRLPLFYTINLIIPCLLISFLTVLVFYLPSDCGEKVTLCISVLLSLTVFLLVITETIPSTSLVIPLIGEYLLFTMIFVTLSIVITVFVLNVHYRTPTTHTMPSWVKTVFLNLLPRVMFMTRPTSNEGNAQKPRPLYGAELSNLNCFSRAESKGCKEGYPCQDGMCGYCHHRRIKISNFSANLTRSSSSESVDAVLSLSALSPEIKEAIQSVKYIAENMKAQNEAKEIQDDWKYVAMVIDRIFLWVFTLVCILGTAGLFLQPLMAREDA
T5 sequence (P30926 22-498): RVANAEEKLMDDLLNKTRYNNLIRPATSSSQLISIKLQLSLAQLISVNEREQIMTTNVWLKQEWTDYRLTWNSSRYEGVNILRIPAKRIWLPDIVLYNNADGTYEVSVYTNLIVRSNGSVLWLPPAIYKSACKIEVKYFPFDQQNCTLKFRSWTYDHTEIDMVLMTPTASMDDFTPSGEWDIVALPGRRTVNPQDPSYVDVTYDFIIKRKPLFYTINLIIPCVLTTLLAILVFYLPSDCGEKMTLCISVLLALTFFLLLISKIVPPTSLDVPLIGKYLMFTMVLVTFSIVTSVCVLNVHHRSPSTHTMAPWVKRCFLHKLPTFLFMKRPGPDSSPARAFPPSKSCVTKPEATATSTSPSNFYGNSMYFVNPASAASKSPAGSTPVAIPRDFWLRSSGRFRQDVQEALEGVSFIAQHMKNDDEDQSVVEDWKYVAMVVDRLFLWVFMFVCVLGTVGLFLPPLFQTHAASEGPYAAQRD

As a reminder, the Hill coefficient is the slope factor of the fitted curve. For orientation: Emax means the size of the effect at its maximum, as opposed to the concentration needed. As a reminder, the EC50 is the concentration needed to bring the measured effect to its halfway point. By Ki is commonly meant the equilibrium dissociation constant of an inhibitor or competing ligand from its target. As to `Cc1nc(Cl)cc(Nc2nc3ncn(-c4c(C)cccc4Cl)c(=O)c3s2)n1` [LD486, 2-((6-Chloro-2-methylpyrimidin-4-yl)amino)-6-(2-chloro-6-methylphenyl)thiazolo[4,5-d]pyrimidin-7(6H)-one], the “maximal degree of adjustable endogenous agonist ACh current amplitude” value in data set [1] (FIG. 3, Hill equation fit) is given as “about 3.2 times”. For the same compound, the Hill coefficient in data set [1] (FIG. 3, n=6) is reported as 1.4±0.2. Besides, the Emax in data set [1] (FIG. 3, normalized to 100 μM ACh, repeated 6 times) stood at 320%. In data set [1] (FIG. 3 concentration response curve, 100 μM ACh, n=6), the response was half-maximal at 3.2 ± 0.3 µM (EC50). For the same compound, the “induction of α7 nAChR characteristic current by compound alone” value in data set [1] (LD486 0.1-10 μM alone, without ACh, FIG. 2) is recorded as “does not induce”. Also, the activity at 10 µM in data set [1] is 320%. Also, in data set [1] (incubation 1 min, then same concentration of LD486 plus 100 μM ACh, FIG. 2), the “current amplitude induced by 100 μM ACh compared with the control group” value is “significantly increased”. In data set [1] (summary statement, read-out: Ki value as an α7nAChR PAM), the Ki is about 3 µM. Besides, in data set [2] (concentration increased to 10 μM, hippocampus of rats), the “effect on binding of [3H]-MLA to α7 nAChR” value was “does not affect; also recorded: not reduced”. For the same compound, in data set [3], the “effect on current of α4β2 receptors” value is “did not increase; also recorded: no significant effect”. Further, in data set [4], the “inhibitory effect on the hERG channel” value is given as “no inhibitory effect; also recorded: slight inhibitory effect”. The “effect on current of α3β4 receptors” value in data set [5] is reported as “did not increase; also recorded: no significant effect”.
For `COc1ccc(Sc2nc3ncn(-c4c(C)cccc4Cl)c(=O)c3s2)cc1` [LYH150909, 6-(2-Chloro-6-methylphenyl)-2-((4-methoxyphenyl)thio)thiazolo[4,5-d]pyrimidin-7(6H)-one], the activity at 10 µM in data set [1] was determined as 110%.
Regarding `Cc1cccc(Cl)c1-n1cnc2nc(Sc3ccccc3)sc2c1=O` [LYH151120, 6-(2-Chloro-6-methylphenyl)-2-(phenylthio)thiazolo[4,5-d]pyrimidin-7(6H)-one], the activity at 10 µM in data set [1] was 380%. For the same compound, the EC50 in data set [1] (setting [6]) turned out to be 10 µM.
On to `Cc1cccc(Cl)c1-n1cnc2nc(Sc3cccc(F)c3)sc2c1=O` [LYH151215, 6-(2-Chloro-6-methylphenyl)-2-((3-fluorophenyl)thio)thiazolo[4,5-d]pyrimidin-7(6H)-one], for which the EC50 in data set [1] (setting [6]) stood at 10 µM.
`O=C(N[C@H]1CN2CCC1CC2)c1ccc(Cl)cc1` [PNU-282987, reference compound] gave a Ki in data set [2] (displacement of [3H]-MLA, rat brain cell membrane, FIG. 1) of 0.0341 ± 0.0043 µM.
